Reference: patent publication US11439709B2, “Phospholipid ether analogs as cancer-targeting drug vehicles” (Cellectar Biosciences, Inc., priority 2014, dated 2022)

Legend:
[1] = system: human RL-251 tumor xenograft; experiment: Prolonged retention of 131I-CLR1404 by RL-251 tumor xenograft; type: in vivo, SCID mouse; conditions: See FIG. 3
Description: FIG. 3. Prolonged retention of ^131ICLR1404 by human RL-251 tumor xenograft in SCIO mouse.

[2] = system: non-small cell lung carcinoma (NSCLC) tumors; experiment: Clinical evaluation of 131I-CLR1404 in NSCLC patients (gamma imaging); type: in vivo, human; conditions: two patients with advanced NSCLC; injection of <1 mCi 131I-CLR1404
Description: To date, two patients with advanced NSCLC were imaged after an injection of <1 mCi of ^131I-CLR1404. Blood and urine samples were collected at predetermined times, and gamma imaging performed at several time points following administration.
Materials and Methods: Following intravenous injection of iodine-131 labeled CLR1404 (1 mCi/20 μg), patients with advanced NSCLC where scanned at 3, 6, 24, 48, 96 h and at 7 and 11 days on a GE Maxxus dual Head SPECT scanner. Blood and urine samples were collected for pharmacokinetic analysis as well as clinical hematologic, renal, and hepatic bioanalysis.

[3] = system: xenograft, orthotopic and transgenic cancer and cancer stem cell derived animal models; experiment: Tumor selectivity of radioiodinated CLR1404 across animal tumor models (overall count); type: in vivo; conditions: transgenic and spontaneous rodent models
Description: All described animal studies were performed according to animal protocols approved by the Institutional Animal Care and Use Committee. Female athymic nude mice (Hsd:Athymic Nude-Foxnlnu or Crl:NU-Foxn1nu, Charles River Laboratories) about 4 to 5 weeks of age, 16 to 18 g (n=6), were used for human tumor xenograft studies. Mice were anesthetized with isoflurane and injected subcutaneously with viable tumor cells in 100 μl of Dulbecco's PBS (or, for glioma cells, […] of PBS) into the right flank. Inoculum sizes were 1×10^6 (for renal, ovarian, glioma, pancreatic, prostate, and NSCLC models), 2×10^6 (for colorectal and uterine models), or 3×10^6 (breast).
Radioiodinated ^124l-LR1404 was tested. in subcutaneous and orthotopic xenografts of 60 different spontaneous, transgenic, human, and rodent malignant cell lines and tumor types. […] Representative examples are of both human (FIG. 5A-5l) and rodent (FIG. 5J-M) tumors.

[4] = system: cancer cell lines (renal, ovarian, pancreatic, melanoma, and prostate); experiment: Uptake of CLR1501 by cancer cell lines versus normal fibroblasts (confocal microscopy); type: cell-based; conditions: 24 hours; five cancer cell lines (renal, ovarian, pancreatic, melanoma, prostate) vs normal human skin fibroblasts; 5 or 7.5 μM
Description: Human cancer cell lines were purchased from the American Type Culture Collection (ATCC). They included the following: Caki-2 (renal; clear cell carcinoma), HCT-116 (colorectal carcinoma); MES-SA/Dx5 (uterine sarcoma) [all maintained in McCoy's 5a medium supplemented with 10% fetal bovine serum (FBS)], Ovcar-3 (ovarian adenocarcinoma) [maintained in RPMI medium supplemented with 20% FBS], U87-MG (glioma) [maintained in minimum essential medium supplemented with 10% FBS], Mia Paca-2 (pancreatic carcinoma) (maintained in Dulbecco's modified Eagle's medium supplemented with 10% FBS), PC-3 (prostate carcinoma) (maintained in F-12K medium supplemented with 10% FBS), MDA-MB-231 (triple-negative mammary gland adenocarcinoma) (maintained in Leibovitz's medium supplemented with 10% FBS), and A549 (non-small cell lung carcinoma) (maintained in F-12 medium supplemented with 10% FBS). Normal human skin fibroblasts were purchased from ATCC and grown in Fibroblast Basal Medium PCS-201-030 supplemented with serum-free kit (Fibroblast Growth. Kit-Serum-Free PCS-201-040). […]
All cells were maintained at 37° C. in appropriate medium supplemented with 10% FBS and 5% CO2. […] The emission signal of CLRI 50 I was detected using Alexa Fluor 488 filters (ex/em 480/520 nm).

[5] = system: human glioblastoma stemlike cells and serum-cultured human glioblastoma cells; conditions: Weichert J. P., et al. (2014), FIG. 2; cited from earlier work
C6 glioma = experiment: Rat C6 glioma model, NM404 imaging and tissue distribution; type: in vivo; conditions: for Tumor to brain ratio: C6 glioma-bearing rats
Description: Materials and Methods: All animals were housed and handled in accordance with the University of Wisconsin Research Animal Resources Center guidelines. Rat C6 glioma cells were propagated in DMEM medium (Life Technologies, Gaithersburg, Md.) supplemented with 10% heat-inactivated FBS (Bio Whittaker, Walkersville, Md.), 100 U/ml penicillin G, […] streptomycin, and 0.01 M HEPES (Life Technologies, Gaithersburg, Md.). Intracranial tumor implantation was performed as described previously. Cohen J D, et al., Intracranial C6 glioma model in adult Wistar-Furth rats. J Neuro Oncol 1990 8(1):95-6. Briefly, 1×10^6 C6 cells were resuspended in […] 1.2% methylcellulose and injected into the frontal lobes of anesthetized female Wistar rats (Harlan, Indianapolis, Ind.). Sham-operated animals received intracranial injections of an equal volume of methylcellulose without tumor cells.
Imaging Studies: Ten days after implantation, the presence of intracranial tumors was confirmed with MM. Briefly, anesthetized rats (6) received 2 ml of Gadodiamide (Gd, Omniscan 287 mg/ml, Nycomed, Princeton, N.J.) intraperitoneally and imaged 10 min later using a 1.5 Tesla clinical MR system (GE Signa LX) and a GE phased array extremity coil. The Tl-weighted (TR=500 ms, TE=I6.5 ms) multislice sequences covering the entire brain of each rat were inspected to select tumor-bearing rats with varying tumor sizes, and sham-operated rats for NM404 injections.
NM404 [18-(4-iodophenyl)-octadecylphosphocholine] (100 mg) was radioiodinated with ^125l via isotope exchange with Na^125I in a melt of pivalic acid. Weichert, et al. Int J Appl Rad Isotopes 1986; 37:907-913. NM404 has the same chemical structure as CLR1404 except that it is radioiodinated with ^125l instead of ^124l or ^131l. Following HPLC purification NM404 was dissolved in an aqueous 2% Polysorbate 20 solution prior to tail vein injection (5: −20 μCi/200 g rat) into four tumor-bearing and three sham-operated rats. At 1 (n=1), 2 (n=1), and 4 (n=2) days after NM404 injection, animals were euthanized (CO2) and brains were excised and imaged on a modified Bioscan AR2000 radio-TLC scanner (1 mm increments at 2 min acquisition/lane and 1 mm high-resolution collimator). In addition, normal brain, blood, kidney, liver, spleen, thyroid, and tumor tissues were weighed, and radioactivity counted in a gamma counter. The tissue distribution of radioactivity was then correlated to brain histology.

PC-3 cells = experiment: Uptake of 125I-CLR1404 by PC-3 cells after lipid raft disruption with filipin III; type: cell-based; conditions: PC-3 cells pretreated with 2 μg/ml filipin III 15 min, then 125I-CLR1404 for 1 h; compared to untreated control cells
Description: PC-3 cells were pretreated with either 2 μg/ml filipin III or vehicle for 15 min, then washed and incubated with 2 μCi of ^125I-CLR1404 for 1 h. The media was removed and the cells were washed with phosphate buffered saline containing 0.1% bovine serum albumin, trypsinized, then split into two samples for determination of cell number by DNA content (A280 compared to a cell line specific standard curve) and counts per minute using a Gamma Counter (Perkin Elmer).

In the case of `C[N+](C)(C)CCOP(=O)([O-])OCCCCCCCCCCCCCCCCCCc1ccc(I)cc1` [CLR1404, 18-(4-iodophenyl)-octadecylphosphocholine], the “time remaining in cancer cells” value [1] was “up to 20 days”, the “tumor uptake and retention in the primary lung tumor” value [2] was “significant tumor uptake and retention” and the “models showing tumor selectivity / selective and prolonged tumor retention” value [3] was 55/60.
For `C[N+](C)(C)CCOP(=O)([O-])OCCCCCCCCCCCCCCCCCCc1ccc(C2=C3C=CC=[N+]3[B-](F)(F)n3cccc32)cc1` [CLR1501], the “preferential uptake in cancer cell lines compared to normal fibroblasts” value [4] is given as “five to nine” and the “uptake compared to normal human astrocytes and fetal human neural stem cells” value [5] is given as “enhanced uptake”.
In the case of `C[N+](C)(C)CCOP(=O)([O-])OCCCCCCCCCCCCCCCCCCc1ccc(I)cc1` [NM404, 18-(4-iodophenyl)-octadecylphosphocholine], the “Tumor to brain ratio” value (C6 glioma; 48 h after tail vein injection) was 12.2, the “Tumor to brain ratio” value (C6 glioma; 96 h after tail vein injection) was 6.7 and the “uptake and retention in gliomas (imaging)” value (C6 glioma; gliomas ranging from 3-5 mm in diameter) was “striking uptake and prolonged retention in all gliomas”. For the same compound, the “Radioactivity in normal brain tissue” value (C6 glioma; sham operated control animals) was “minimal” and the “less uptake after disruption of lipid rafts” value (PC-3 cells) was ~40%.
